The subject of assay [1] is humeral or antibody response. In words: hemolysin test in mice. Type of assay: in vivo. As to conditions: Mus musculus, sc, dose reducing antibody activity by 50% vs control, read-out: HL(ED50).
For assay [2], the system named is cell-mediated immune response to the antigen, Mycobacterium tuberculosis H37Ra. The experiment in a line: delayed hypersensitivity test. Type of assay: in vivo, mouse. As to conditions: mice, dose reducing edema of cell-mediated immune response by 60% vs control; for ED60: Mus musculus, sc, read-out: D.H.S. (ED60). How it is done:
The immunosuppressant activities of the compounds of this invention were determined via the hemolysin test in mice and by the delayed hypersensitivity test. The hemolysin test used is that described in Methods in Immunology, edited by D. H. Campbell et al, W. A. Benjamin, New York 1963 pages 172-175, and measures humeral or antibody response. The delayed hypersensitivity test measures the effect of a test compound on the ability of a subject mouse to mount a cell-mediated immune response to the antigen, Mycobacterium tuberculosis H37Ra. The mouse is sensitized to the antigen by subcutaneous administration in the base of the tail. The development of the delayed hypersensitivity response may be measured at any time beginning six days after sensitization but is usually done on the ninth day as follows: The right hind paw is injected with purified protein derivative (tuberculin) while the left hind paw (control) receives physiological saline. Both paw volumes are measured after twenty-four hours and significant increase in the volume of the right hand paw is taken as a measure of an effective delayed hypersensitivity response. All compounds were administered by the subcutaneous route.
The D.H.S. (ED60) mg./kg. s.c. value appearing in column 3 is an expression of the effectiveness of the drug in reducing the edema that accompanies the cell-mediated immune response. It is a measure of the number of milligrams per kilogram of body weight of the drug administered subcutaneously which is required to reduce the edema of the cell-mediated immune response by 60% when compared to the control.

The test system of assay [3] is carrageenan rat paw edema. In words: Rat Paw Edema Assay, Oral Dosing. The conditions noted are these: 4 h, four hours after drug, read-out: % Difference from Control; for change in vivo at 100 mg/kg: 100 mg/kg oral; for change in vivo at 400 mg/kg: 400 mg/kg oral. It is filed as in vivo. How it is done:
The anti-inflammatory activity of representative compounds of this invention was determined by the rat paw edema assay both by local administration (Table XI below) and by oral dosing (Table XII below). For the oral dosing, the procedure of C. A. Winter, E. A. Risley and G. W. Nuss, Proc. Soc. Exp. Biol. Med. III, 544 (1962) was employed with measurement taken four hours after the drug was administered. The local administration tests were carried out similarly except the irritant (carrageenan) and the test compound were injected simultaneously at time zero.
Tables XI and XII report the anti-inflammatory activity of the compounds tested as % difference in the edema or swelling as compared with the control. These Tables also give the response in many instances of more than one dose level of the same drug.

The values below come from patent US4160097A, “1-(2-Phenylureylene)imidazoles” (Westwind Pharmaceuticals, Inc., priority 1977, dated 1979).

By ED50 is commonly meant the midpoint of the dose-response relation.

For `Fc1cccc(Nc2nc3ccccc3n3ccnc23)c1` [Compound 181], the median effective dose (ED50) in assay [1] worked out at 16 mg/kg. `CC(C)c1ccc(Nc2nc3ccccc3n3ccnc23)cc1` [Compound 218]: the ED60 in assay [2] is 25 mg/kg. In assay [1], the ED50 turned out to be 1.5 mg/kg.

Regarding `COc1ccc(Oc2ccc(-c3nc4ccccc4n4ccnc34)cc2)cc1` [Compound 220], the ED60 in assay [2] is 11 mg/kg. The ED50 in assay [1] was 2.3 mg/kg.

`CC(C)Cc1nc2ccccc2n2ccnc12` [Compound 121]: the change in vivo at 100 mg/kg in assay [3] is -61%. Turning to `CC(C)CC(=O)Nc1ccccc1-n1ccnc1` [Compound 14], the change in vivo at 100 mg/kg in assay [3] was -52%. On the same count and under the same terms, as for `O=C(Nc1ccccc1-n1ccnc1)C1CC1` [Compound 23], the figure is -46%; as for `CCCCC1C(=O)N(c2ccccc2)N(c2ccccc2)C1=O` [phenylbutazone, reference compound], -76%. Turning to `Cc1ccc(C(=O)Nc2ccccc2-n2ccnc2)cc1` [Compound 37], the change in vivo at 100 mg/kg in assay [3] is -35%.

With `CCc1nc2ccccc2n2ccnc12` [Compound 111], the change in vivo at 100 mg/kg in assay [3] was -43%. With `Brc1ccccc1Nc1nc2ccccc2n2ccnc12` [Compound 177], the ED60 in assay [2] is > 50 mg/kg. For the same molecule, in assay [1], the ED50 is 13 mg/kg. As for `O=C(Nc1ccccc1-n1ccnc1)NC1CCCCC1` [Compound 68], the change in vivo at 100 mg/kg in assay [3] was -26%. As for `Fc1ccccc1Nc1nc2ccccc2n2ccnc12` [Compound 180], in assay [1], the ED50 amounted to 5.6 mg/kg. With `O=[N+]([O-])c1cccc(-c2nc3ccccc3n3ccnc23)c1` [Compound 150], the change in vivo at 100 mg/kg in assay [3] is -30%. For the same molecule, the ED60 in assay [2] was > 50 mg/kg. The ED50 in assay [1] was found to be 22 mg/kg. As to `Brc1ccc(Nc2nc3ccccc3n3ccnc23)cc1` [Compound 183], the ED60 in assay [2] amounted to 15 mg/kg. The ED50 in assay [1] came out at 0.39 mg/kg. On to `Cc1ccc(Nc2nc3ccccc3n3ccnc23)cc1` [Compound 171], for which, in assay [2], the ED60 came to 59 mg/kg. For the same molecule, the ED50 in assay [1] is 0.96 mg/kg. On to `Brc1ccc(-c2nc3ccccc3n3ccnc23)cc1` [Compound 146], for which, in assay [2], the ED60 is 3.1 mg/kg. In addition, the ED50 in assay [1] stood at 0.11 mg/kg. For the molecule `CCCCCCc1nc2ccccc2n2ccnc12` [Compound 115], in assay [3], the change in vivo at 100 mg/kg was determined as 70% and the change in vivo at 400 mg/kg is -25%. Regarding `Oc1ccc(-c2nc3ccccc3n3ccnc23)cc1` [Compound 162], in assay [1], the ED50 turned out to be 13 mg/kg. As for `COc1ccc2c(c1)c(CC(=O)O)c(C)n2C(=O)c1ccc(Cl)cc1` [Indomethacin, reference compound], in assay [3], the change in vivo at 100 mg/kg is -65%.

As to `Clc1ccc(Nc2nc3ccccc3n3ccnc23)cc1` [Compound 174], the ED60 in assay [2] came to 8 mg/kg. Besides, the ED50 in assay [1] was 0.61 mg/kg. For `O=C(Nc1ccccc1-n1ccnc1)C1CCC1` [Compound 24], in assay [3], the change in vivo at 100 mg/kg was -17% and the change in vivo at 400 mg/kg was -25%. In the case of `c1ccc(Nc2nc3ccccc3n3ccnc23)cc1` [Compound 170], the ED60 in assay [2] is > 50 mg/kg. In addition, the ED50 in assay [1] worked out at 6.6 mg/kg. Regarding `CCC(=O)Nc1ccccc1-n1ccnc1` [Compound 3], in assay [2], the ED60 was 50 mg/kg. Besides, the “D.H.S. (ED60)” value in assay [2] (s.c.) came to 50.0 mg/kg. Besides, in assay [1], the ED50 turned out to be 50 mg/kg. With `CC(=O)Nc1ccccc1-n1ccnc1` [Compound 2], in assay [3], the change in vivo at 100 mg/kg was -26% and the change in vivo at 400 mg/kg was determined as 43%. Turning to `Clc1ccc(Nc2nc3ccccc3n3ccnc23)cc1Cl` [Compound 175], the ED60 in assay [2] was 5.9 mg/kg. Besides, the median effective dose (ED50) in assay [1] was determined as 0.09 mg/kg. Consider `O=C(Nc1ccccc1-n1ccnc1)c1cccc(Cl)c1` [Compound 50], for which, in assay [3], the change in vivo at 100 mg/kg is -20% and the change in vivo at 400 mg/kg was -33%. In the case of `c1ccc(Oc2ccc(-c3nc4ccccc4n4ccnc34)cc2)cc1` [Compound 219], the ED60 in assay [2] is > 32 mg/kg. For the same molecule, the ED50 in assay [1] worked out at 2.5 mg/kg. On to `Clc1ccc(-c2nc3ccccc3n3ccnc23)c(Cl)c1` [Compound 144], for which the change in vivo at 100 mg/kg in assay [3] was -26%. Regarding `Fc1cccc(-c2nc3ccccc3n3ccnc23)c1` [Compound 158], in assay [2], the ED60 worked out at 7.6 mg/kg. The ED50 in assay [1] came out at 1 mg/kg.

For the molecule `CCCNC(=O)Nc1ccccc1-n1ccnc1` [Compound 66], the ED60 in assay [2] was > 50 mg/kg. In addition, the ED50 in assay [1] is 46 mg/kg. Turning to `Brc1cccc(Nc2nc3ccccc3n3ccnc23)c1` [Compound 178], in assay [2], the ED60 was 46 mg/kg. In assay [1], the ED50 was 11 mg/kg. `Brc1cccc(-c2nc3ccccc3n3ccnc23)c1` [Compound 157]: the ED60 in assay [2] turned out to be 12 mg/kg. Further, the ED50 in assay [1] came to 0.39 mg/kg. Take `O=C(Nc1cccc(F)c1)Nc1ccccc1-n1ccnc1` [Compound 73]: the change in vivo at 100 mg/kg in assay [3] was -22%. With `O=C(Nc1ccc(Cl)cc1)Nc1ccccc1-n1ccnc1` [Compound 75], in assay [3], the change in vivo at 100 mg/kg was -30%.

On to `Cc1ccc(NC(=O)Nc2ccccc2-n2ccnc2)cc1` [Compound 71], for which the change in vivo at 100 mg/kg in assay [3] is -22%. As to `CCCCC(CC)C(=O)Nc1ccccc1-n1ccnc1` (stereo not shown) [Compound 15], in assay [3], the change in vivo at 100 mg/kg is -24% and the change in vivo at 400 mg/kg is -5%.

As to `N#Cc1ccc(-c2nc3ccccc3n3ccnc23)cc1` [Compound 149], the ED60 in assay [2] was found to be 8.8 mg/kg. Further, in assay [1], the ED50 came to 0.16 mg/kg. For the molecule `CC(=O)Oc1ccccc1C(=O)O` [Aspirin, reference compound], the change in vivo at 100 mg/kg in assay [3] was -57%. Same read-out and setting: as for `O=C(Cc1ccccc1)Nc1ccccc1-n1ccnc1` [Compound 18], the figure is -28%.

Take `O=C(Nc1ccccc1-n1ccnc1)C(Cl)Cl` [Compound 29]: in assay [3], the change in vivo at 100 mg/kg is -24% and the change in vivo at 400 mg/kg was -25%. On to `O=C(Nc1ccccc1-n1ccnc1)c1cccc(C(F)(F)F)c1` [Compound 38], for which the change in vivo at 100 mg/kg in assay [3] was -41%.

With `Ic1ccc(-c2nc3ccccc3n3ccnc23)cc1` [Compound 196], in assay [2], the ED60 amounted to 45 mg/kg. Also, the 50% effective dose (ED50) in assay [1] was found to be 0.42 mg/kg. Regarding `Clc1ccc(-c2nc3ccccc3n3ccnc23)cc1Cl` [Compound 143], the ED60 in assay [2] stood at 1.3 mg/kg. The median effective dose (ED50) in assay [1] turned out to be 0.36 mg/kg. Turning to `O=C(Nc1ccccc1-n1ccnc1)c1cccc([N+](=O)[O-])c1` [Compound 42], in assay [3], the change in vivo at 100 mg/kg is -9% and the change in vivo at 400 mg/kg is -25%. For the molecule `CCCCSc1ccc(-c2nc3ccccc3n3ccnc23)cc1` [Compound 222], the ED60 in assay [2] is > 32 mg/kg. The ED50 in assay [1] was 1 mg/kg.

As for `O=C(Nc1ccccc1-n1ccnc1)C1CCCCC1` [Compound 25], the change in vivo at 100 mg/kg in assay [3] was -30%.

For `O=C(Nc1ccccc1-n1ccnc1)C(F)(F)F` [Compound 30], in assay [3], the change in vivo at 100 mg/kg came out at 9% and the change in vivo at 400 mg/kg was -33%. In the case of `Cc1ccccc1Nc1nc2ccccc2n2ccnc12` [Compound 197], in assay [2], the ED60 was 37 mg/kg. In addition, in assay [1], the ED50 came out at 1.6 mg/kg. On to `COc1cc(OC)cc(C(=O)Nc2ccccc2-n2ccnc2)c1` [Compound 57], for which the change in vivo at 100 mg/kg in assay [3] is -35%. For the molecule `O=C(Nc1ccccc1-n1ccnc1)c1ccc(Cl)cc1Cl` [Compound 52], the change in vivo at 100 mg/kg in assay [3] is -26%. For `Cc1cccc(C(=O)Nc2ccccc2-n2ccnc2)c1` [Compound 36], in assay [3], the change in vivo at 100 mg/kg is -7% and the change in vivo at 400 mg/kg is -68%. For `O=C(Nc1ccccc1-n1ccnc1)c1ccc(F)cc1` [Compound 45], the change in vivo at 100 mg/kg in assay [3] was -33%. The same measure, in the same setting: as for `COc1ccc(C(=O)Nc2ccccc2-n2ccnc2)cc1` [Compound 55], the figure is -26%.
